A short description of series [1]: Binding affinity to wild type full length human CK2alpha2 (1 to 350 residues) expressed in mammalian expression system assessed as change in melting temperature by SYPRO orange dye based DSF assay. For orientation: DSF heats the sample and reads unfolding from a dye or from intrinsic fluorescence.
Series [2] concerns the target T1, Serine/threonine-protein kinase 17A (Homo sapiens, UniProt Q9UEE5).
T1 sequence (Q9UEE5 whole entry): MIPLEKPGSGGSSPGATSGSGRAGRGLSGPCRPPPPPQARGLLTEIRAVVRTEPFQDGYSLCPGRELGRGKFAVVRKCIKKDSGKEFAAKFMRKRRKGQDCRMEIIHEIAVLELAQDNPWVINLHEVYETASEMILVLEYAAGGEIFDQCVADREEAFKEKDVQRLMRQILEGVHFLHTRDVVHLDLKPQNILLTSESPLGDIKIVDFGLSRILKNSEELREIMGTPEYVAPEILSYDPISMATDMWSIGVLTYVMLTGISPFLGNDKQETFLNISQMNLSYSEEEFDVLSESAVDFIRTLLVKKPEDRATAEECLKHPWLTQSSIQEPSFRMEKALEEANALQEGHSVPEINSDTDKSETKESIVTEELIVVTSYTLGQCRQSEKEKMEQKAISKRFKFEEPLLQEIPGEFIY
In words: Inhibition of human N-terminal His-tagged/ TEV cleavage fused DRAK1 (39 to 369 residues) expressed in Escherichia coli using KKLNRTLSFAEPG peptide as substrate in presence of [gamma-33P]ATP by radiometric based scintillation proximity assay.

The target in series [3] is T2, Serine/threonine-protein kinase 17A (Homo sapiens) (UniProt Q9UEE5).
T2 sequence (whole entry): T1 sequence (Q9UEE5 whole entry)
Description: Binding affinity to human N-terminal His-tagged/ TEV cleavage fused DRAK1 (39 to 369 residues) expressed in Escherichia coli assessed as change in melting temperature at 10 uM by SYPRO orange dye based DSF assay.

Series [4] deals with Casein kinase II subunit alpha (Homo sapiens, UniProt P68400). Description: Binding affinity to wild type full length human CK2alpha1 (1 to 391 residues) expressed in mammalian expression system assessed as change in melting temperature at 10 uM by SYPRO orange dye based DSF assay.
Chain of Casein kinase II subunit alpha (P68400 whole entry, looked up, the tested form may be a part): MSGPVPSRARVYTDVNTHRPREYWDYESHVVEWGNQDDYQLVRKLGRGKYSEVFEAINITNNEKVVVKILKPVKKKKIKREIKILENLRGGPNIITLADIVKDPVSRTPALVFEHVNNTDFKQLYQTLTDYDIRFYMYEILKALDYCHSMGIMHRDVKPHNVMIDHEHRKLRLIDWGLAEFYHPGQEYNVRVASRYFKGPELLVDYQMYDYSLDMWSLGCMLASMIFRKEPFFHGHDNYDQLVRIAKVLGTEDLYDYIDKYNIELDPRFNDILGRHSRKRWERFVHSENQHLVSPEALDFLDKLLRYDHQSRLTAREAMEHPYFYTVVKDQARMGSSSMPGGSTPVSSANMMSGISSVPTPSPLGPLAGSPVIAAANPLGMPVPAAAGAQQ
Series [5] deals with T1, Serine/threonine-protein kinase 17A. Description: Inhibition of human N-terminal His-tagged/ TEV cleavage fused DRAK1 (39 to 369 residues) transfected in HEK293T cells using NanoBRET NanoGlo as substrate incubated for 2 hrs by NanoBRET assay. The class given is cell-based. (BRET reads energy transfer from a luciferase to a nearby fluorophore.)
Series [6] relates to HEK-293T. In words: Induction of morphological changes in human HEK293T cells assessed as microtubule damage at 1 to 10 uM incubated for 18 hrs by confocal fluorescence microscopic analysis. The format is toxicity, cell-based. The settings on record: dose 1-10 µM.
A short description of series [7]: Induction of morphological changes in human MRC9 cells assessed as microtubule damage at 1 to 10 uM incubated for 18 hrs by confocal fluorescence microscopic analysis. The class given is toxicity, cell-based. The settings on record: mrc9, 18 h, dose 1-10 µM.
Series [8] concerns HEK-293T. In words: Cytotoxicity against human HEK293T cells at 1 uM incubated for 18 hrs. The format is toxicity, cell-based.
The target of series [9] is T2, Serine/threonine-protein kinase 17A (Homo sapiens). Description: Inhibition of human N-terminal His-tagged/ TEV cleavage fused DRAK1 (39 to 369 residues) expressed in Escherichia coli assessed as change in enthalpy by isothermal titration calorimetry. (ITC needs no label: the signal is the heat of the interaction.)
Series [10] in a line: Cytotoxicity against human MRC9 cells assessed as increase in total apoptotic cells incubated for 36 hrs by Annexin V staining based method. The class given is toxicity, cell-based.
Series [11] concerns HEK-293T. Description: Induction of morphological changes in human HEK293T cells assessed as mitochondrial damage at 1 to 10 uM incubated for 18 hrs by confocal fluorescence microscopic analysis. The settings on record: dose 1-10 µM. The format is toxicity, cell-based.
Series [12] in a line: Cytotoxicity against human HEK293T cells assessed as increase in total apoptotic cells incubated for 36 hrs by Annexin V staining based method. The class given is toxicity, cell-based, HEK-293T.
Series [13] deals with T1, Serine/threonine-protein kinase 17A. Description: Binding affinity to human N-terminal His-tagged/ TEV cleavage fused DRAK1 (39 to 369 residues) expressed in Escherichia coli by isothermal titration calorimetry.
Series [14] addresses T2, Serine/threonine-protein kinase 17A (Homo sapiens). In words: Inhibition of human N-terminal His-tagged/ TEV cleavage fused DRAK1 (39 to 369 residues) expressed in Escherichia coli assessed as change in entropy by isothermal titration calorimetry.
For series [15], the system named is HEK-293T. In words: Cytotoxicity against human HEK293T cells at 1 uM incubated for 36 hrs. The class given is toxicity, cell-based.
Series [16] in a line: Cytotoxicity against human MRC9 cells at 1 uM incubated for 36 hrs. The format is toxicity, cell-based. The settings on record: mrc9, 36 h.
The subject of a further series is LN-229. In words: Antiproliferative activity against human LN-229 cells assessed as reduction in cell viability after 1 to 7 days by resazurin dye based fluorimetric analysis. The class given is functional.
Series [17] concerns the target T2, Serine/threonine-protein kinase 17A (Homo sapiens). In words: Inhibition of human N-terminal His-tagged/ TEV cleavage fused DRAK1 (39 to 369 residues) expressed in Escherichia coli assessed as gibbs free energy change by isothermal titration calorimetry.
The test system of the next series is LN-18. Description: Antiproliferative activity against human LN-18 cells assessed as reduction in cell viability after 1 to 7 days by resazurin dye based fluorimetric analysis. The format is functional.
For series [18], the system named is T98G. Description: Antiproliferative activity against human T98G cells assessed as reduction in cell viability measured after 1 to 7 days by resazurin dye based fluorimetric analysis. The class given is functional.
The subject of series [19] is T98G. Description: Induction of morphological changes in human T98G cells assessed as change in cell shape at 12.5 uM incubated for 5 days by microscopy analysis. The format is functional, cell-based. The settings on record: time 5.0 day.
The nature of series [20]: Cytotoxicity against human MRC9 cells assessed as increase in total apoptotic cells at 10 uM incubated for 36 hrs by Annexin V staining based method. The note with it: mrc9, 36 h. The format is toxicity, cell-based.
For series [21], the system named is HEK-293T. Description: Cytotoxicity against human HEK293T cells assessed as increase in total apoptotic cells at 10 uM incubated for 18 hrs by Annexin V staining based method. The class given is toxicity, cell-based.
Another series deals with D-247MG. In words: Antiproliferative activity against human D-247MG cells assessed as reduction in cell viability after 1 to 7 days by resazurin dye based fluorimetric analysis. The format is functional.
Series [22] is described as follows: Induction of morphological changes in human MRC9 cells assessed as mitochondrial damage at 1 to 10 uM incubated for 18 hrs by confocal fluorescence microscopic analysis. The class given is toxicity, cell-based. The note with it: mrc9, 18 h, dose 1-10 µM.
Series [23] relates to U2OS. Description: Cytotoxicity against human U2OS cells assessed as increase in total apoptotic cells at 10 uM incubated for 36 hrs by Annexin V staining based method. The class given is functional, cell-based.
For series [24], the system named is U2OS. Description: Cytotoxicity against human U2OS cells assessed as increase in total apoptotic cells incubated for 36 hrs by Annexin V staining based method. The format is functional, cell-based.
The test system of series [25] is HEK-293T. Description: Cytotoxicity against human HEK293T cells assessed as increase in total apoptotic cells at 10 uM incubated for 36 hrs by Annexin V staining based method. The class given is toxicity, cell-based.

The source made the active and inactive calls. The calls are words filed in the database; no cut-off is given here.

What is called ΔTm is the change in melting temperature against a reference sample. For orientation: IC50 means the midpoint of a concentration-inhibition curve. With `CC(NC(=O)c1ccc2cc1OCCOCCNc1ccn3ncc-2c3n1)c1ccccc1` (stereo not drawn), the results for the ΔTm in series [1], in series [3] and in series [4] were 1.9 °C, 12.1 °C and -0.9 °C, respectively. In addition, the figures for the half-maximal inhibitory concentration (IC50) in [2] and in [5] were 31 nM and 71 nM, respectively.
As for `CN1CCN(C(=O)c2ccc3cc2OCCOCCNc2ccn4ncc-3c4n2)CC1`, the shift in melting temperature (ΔTm) in [1] is 0.9 °C; in [4], 0.3 °C. The same compound yielded an IC50 in series [5] above 45000 nM.
`O=C(O)c1ccc2cc1OCCOCCNc1ccn3ncc-2c3n1`: the ΔTm in series [1] came to 11.3 °C; in series [3], 7.9 °C; in series [4], 10.6 °C.
For the compound `O=C(NCc1ccccc1)c1ccc2cc1OCCOCCNc1ccn3ncc-2c3n1`, the shift in melting temperature (ΔTm) in [1] was found to be 4.9 °C; in series [3], 9.3 °C; in [4], 1.7 °C. The IC50 in series [2] came out at 155 nM; in [5], 171 nM.
For the compound `O=C(c1ccc2cc1OCCOCCNc1ccn3ncc-2c3n1)N1CCOCC1`, the ΔTm in series [1] was determined as 2.5 °C; in series [3] it was 3 °C; in [4] it was 1.1 °C. The compound also returned an IC50 in [5] above 45000 nM.
For orientation: EC50 means the midpoint of the concentration-response curve. As usually defined, the Kd is a measure of binding affinity in units of concentration. For the compound `C[C@H](NC(=O)c1ccc2cc1OCCOCCNc1ccn3ncc-2c3n1)c1ccncc1`, the Activity result (with HEK-293T [6]; in [7]; in the series on HEK-293T [8]; in the series on HEK-293T [11]; with HEK-293T [15]; in [16]) was “Non-Toxic” throughout. For the same compound, the Activity entry in series [20] is listed as “Toxic”; with HEK-293T [21], “Toxic”; in series [22], “Non-Toxic”; in the series on HEK-293T [25] it was “Toxic”. Further, in [9], the deltaH was -6.78 kcal/mol. Moreover, the ΔTm in series [1] stood at 0.1 °C; in series [3] it was 12.3 °C; in series [4], 1.2 °C. Also, the EC50 at 36 h in series [10] and in series [12] was above 10000 nM in each case. Moreover, the IC50 in series [2] came out at 15 nM; in series [5], 70 nM. In [13], this compound had a Kd of 9 nM. The deltaS in series [14] was found to be 11.6 cal/mol.K. Besides, the half-maximal effective concentration (EC50) in the series with LN-229 is 2200 nM; with LN-18, 1970 nM; with T98G [18], 2340 nM; in the series with D-247MG, 1250 nM; in the series on U2OS [24], above 10000 nM. In series [17], the deltaG was -10.1 kcal/mol. For the same compound, the result with T98G [19] and in the series on U2OS [23] was Active.

The values are drawn from ChEMBL document CHEMBL5154923 (J Med Chem, 2022).
